Reference: US6887896B1, “7-[(7-Alkoxy)-chrom-3-en-6-yl]-heptatrienoic acid and 7-[(3-alkoxy)-5,6-dihydronaphthalen-2-yl]-heptatrienoic acid derivatives having serum glucose reducing activity” (Allergan, Inc., priority 2003, dated 2005)

Legend:
RXRγ = target: T1, RXRγ (UniProt P28705); test: holoreceptor transactivation assay, RXRγ; type: cell-based; conditions: for EC50: holoreceptor transactivation, read-out: RXR Trans. EC50 γ; for RXR Trans. efficacy (number in parentheses) γ: percentage compared to the standard compound
T1 sequence (P28705 1-463): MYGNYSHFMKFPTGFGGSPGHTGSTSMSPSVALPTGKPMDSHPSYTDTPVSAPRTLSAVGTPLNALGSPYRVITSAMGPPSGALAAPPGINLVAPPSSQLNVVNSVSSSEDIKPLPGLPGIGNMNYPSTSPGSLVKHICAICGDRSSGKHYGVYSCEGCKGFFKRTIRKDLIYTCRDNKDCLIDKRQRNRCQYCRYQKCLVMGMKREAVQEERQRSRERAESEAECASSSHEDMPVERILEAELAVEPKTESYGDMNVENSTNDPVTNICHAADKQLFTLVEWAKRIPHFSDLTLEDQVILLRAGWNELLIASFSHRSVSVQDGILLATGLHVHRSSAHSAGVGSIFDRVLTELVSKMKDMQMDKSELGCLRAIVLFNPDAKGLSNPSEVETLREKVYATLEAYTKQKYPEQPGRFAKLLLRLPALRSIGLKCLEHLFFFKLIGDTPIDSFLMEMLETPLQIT
Description: Specifically, one such assay is a chimeric receptor transactivation assay which tests for agonist-like activity in the R RAPE and RAR7 receptor subtypes, and which is based on work published by Feigner, P. L. and Holm, M (1989) Focus, 112 is described in detail in U.S. Pat. No. 5,455,265. The specification of U.S. Pat. No. 5,455,265 is hereby expressly incorporated by reference. A holoreceptor transactivation assay and a ligand binding assay which measure the antagonist/agonist like activity of the compounds of the invention, or their ability to bind to the several retinoid receptor subtypes, respectively, are described in published PCT Application No. WO WO93/11755 (particularly on pages 30-33 and 37-41) published on Jun. 24, 1993, the specification of which is also incorporated herein by reference. A detailed experimental procedure for holoreceptor transactivations has been described by Heyman et al. Cell 68, 397-406, (1992); Allegretto et al. J. Biol. Chem. 268, 26625-26633, and Mangelsdorf et al. The Retinoids: Biology, Chemistry and Medicine, pp 319-349, Raven Press Ltd., New York, which are expressly incorporated herein by reference. The results obtained in this assay are expressed in EC50 numbers, as they are also in the chimeric receptor transactivation assay. The results of the ligand binding assay are expressed in Ki numbers. (See Cheng et al. Biochemical Pharmacology Vol. 22 pp 3099-3108, expressly incorporated herein by reference.)
Efficacy in a transactivation assay is expressed as a percentage of the maximum potency attained by the compound compared to a standard which, in this case, is the compound named (2E,4E,1′S,2′S)-3-methyl-5-[2′-methyl-2′-(5,5,8,8-tetramethyl-5,6,7,8-tetrahydro-naphthalen-2-yl)-cyclopropyl]-penta-2,4-dienoic acid. This standard compound is described in U.S. Pat. No. 6,114,533.
The specification of this application for patent is organized in several sections in accordance with structural Formulas A through F each of which discloses a group of preferred compounds within the scope of the invention. Tables that disclose the activity of certain exemplary compounds of the invention in the above-described RXR receptor transactivation and binding assays are found in the corresponding sections. […] The transactivation data pertaining to the activation of RXR receptors were obtained in the holoreceptor assay.
Generally speaking, in the tables disclosing the results of transactivation and binding assays the numbers in parentheses indicate efficacy as a percentage compared to the standard compound, (2E,4E,1′S,2′S)-3-methyl-5-[2′-methyl-2′-(5,5,8,8-tetramethyl-5,6,7,8-tetrahydro-naphthalen-2-yl)cyclopropyl]-penta-2,4-dienoic acid and the other numbers indicate the measured EC50 and K; in nanomolar concentration.

ob/ob mice = test: serum glucose, triglycerides and T4 in diabetic mice, oral gavage in corn oil daily for seven days; type: in vivo; conditions: 50 mg/kg, corn oil vehicle (Table 7)

EC50 (RXRγ) | RXR Trans. efficacy (number in parentheses) γ (RXRγ) | SMILES | further results
32 nM | 26% | CCOc1cc2c(cc1\C(=C/C=C/C(C)=C/C(=O)O)CC)C(C)=CCC2(C)C [Compound A-16, 7-(3-Ethoxy-5,5,8-trimethyl-5,6-dihydronaphthalen-2-yl)-3-methyl-nona-2E,4E,6Z-trienoic acid] | Glucose Day 3, 3 h (ob/ob mice): 297 mg/dL; Glucose Day 6, 3 h (ob/ob mice): 267 mg/dL; T4 Day 7 (ob/ob mice): 4.2 µg/dL; Triglycerides Day 3, 3 h (ob/ob mice): 121 mg/dL; Glucose Day 0 (ob/ob mice; day 0 (pre-treatment)): 443 mg/dL; Triglycerides Day 0 (ob/ob mice; day 0 (pre-treatment)): 160 mg/dL
0.9 nM | 73% | CCOc1cc2c(cc1\C(C)=C/C=C/C(C)=C/C(=O)O)C(C(C)(C)C)=CCC2(C)C [Compound A-17, 7-(8-tert-Butyl-3-ethyloxy-5,5-dimethyl-5,6-dihydronaphthalen-2-yl)-3-methyl-octa-2E,4E,6Z-trienoic acid] | 
2.7 nM | 11% | CCOc1cc2c(cc1\C(=C/C=C/C(C)=C/C(=O)O)CC)C(C(C)(C)C)=CCC2(C)C [Compound A-18, 7-(8-tert-butyl-3-ethyoxy-5,5-dimethyl-5,6-dihydronaphthalen-2-yl)-3-methyl-nona-2E,4E,6Z-trienoic acid] | 
2 nM | 31% | CCOc1cc2c(cc1\C(C)=C(F)/C=C/C(C)=C/C(=O)O)C(C(C)(C)C)=CCC2(C)C [Compound A-82, (2E,4E,6E)-6-Fluoro-3-(4,4-dimethyl-6-ethoxy-1-tert-butyl-3,4 dihydronaphthalen-7-yl)-3-methyl-2,4,6-octa-trienoic acid] | 
2 nM | 7% | CCOc1cc2c(cc1\C(CC)=C(F)/C=C/C(C)=C/C(=O)O)C(C(C)(C)C)=CCC2(C)C [Compound A-83, (2E,4E,6E)-7-(8-tert-Butyl-3-ethoxy-5,5-dimethyl-5,6-dihydronaphthalen-2-yl)-6-fluoro-3-methyl-nona-2,4,6-trienoic acid] | 
0.6 nM | 71% | CCOc1c(\C(C)=C(F)/C=C/C(C)=C/C(=O)O)cc2c(c1Br)C(C)(C)CC=C2C(C)C [Compound A-169, (2E,4E,6E)-7-(4-Bromo-3-ethoxy-8-isopropyl-5,5-dimethyl-5,6-dihydro-naphthalen-2-yl)-6-fluoro-3-methyl-octa-2.4,6-trienoic acid] | 
0.2 nM | 73% | CCOc1c(\C(C)=C(F)/C=C/C(C)=C/C(=O)O)cc2c(c1Cl)C(C)(C)CC=C2C(C)C [Compound A-177, (2E,4E,6E)-7-(4-Chloro-3-ethoxy-8-isopropyl-5,5-dimethyl-5,6-dihydronaphthalen-2-yl)6-fluoro-3-methyl-octa-2,4,6-trienoic acid] | 

More lines, now with the values behind:

SMILES | EC50 (RXRγ) | RXR Trans. efficacy (number in parentheses) γ (RXRγ) | further results
CCOc1cc2c(cc1\C(C)=C(F)/C=C/C(C)=C/C(=O)O)C(C)=CCC2(C)C | 3 nM | 70% | 
CCC1=CC(C)(C)Oc2cc(OC)c(\C(C)=C/C=C/C(C)=C/C(=O)O)cc21 [Compound 42, 7-(4-Ethyl-7-methoxy-2,2-dimethyl-2H-chromen-6-yl)-3-methyl-octa-2E,4E,6Z-trienoic acid] | 13 nM | 125% | 
CC/C(=C/C=C/C(C)=C/C(=O)O)c1cc2c(cc1OC)OC(C)(C)C=C2C(C)C [Compound 44, 7-(4-Isopropyl-7-methoxy-22-dimethyl-2H-chromen-6-yl)-3-methyl-nona-2E,4E,6Z-trienoic acid] | 0.4 nM | 97% | 
CCOc1cc2c(cc1\C(=C/C=C/C(C)=C/C(=O)O)CC)C(C)=CC(C)(C)O2 [Compound 46, 7-(7-Ethoxy-2,2,4-trimethyl-2H-chromen-6-yl)-3-methyl-nona-2E,4E,6Z-trienoic acid] | > 1000 nM |  | 
COc1c(\C(C)=C/C=C/C(C)=C/C(=O)O)cc2c(c1Cl)OC(C)(C)C=C2C(C)C [Compound 49, 7-(8-Chloro-4-isopropyl-7-methoxy-2,2-dimethyl-2H-chromen-6-y)-3-methyl-octa-2E,4E,6Z-trienoic acid] | 0.3 nM | 97% | 
CCOc1c(\C(=C/C=C/C(C)=C/C(=O)O)CC)cc2c(c1Cl)OC(C)(C)C=C2C(C)C [Compound 51] | 22 nM | 13% | 
CCC1=CC(C)(C)Oc2cc(OC)c(\C(C)=C(F)/C=C/C(C)=C/C(=O)O)cc21 [Compound 120, 7-(4Ethyl-7-methoxy-2,2-dimethyl-2H-chromen-6-yl)-6-fluoro-3-methyl-octa-2E,4E,6E-trienoic acid] | > 10000 nM |  | 
COc1cc2c(cc1\C(C)=C(F)/C=C/C(C)=C/C(=O)O)C(C(C)C)=CC(C)(C)O2 [Compound 121, (2E,4E,6E)-6-Fluoro-7-(4-isopropyl-7-methoxy-2,2-dimethyl-2H-chromen-6-yl)-3-methyl-octa-2,4,6-trienoic acid] | 10 nM | 79% | 
COc1cc2c(cc1\C(C)=C(F)/C=C/C(C)=C/C(=O)O)C(C(C)(C)C)=CC(C)(C)O2 [Compound 122, 7-(4-tert-Butyl-7-methoxy-2,2-dimethyl-2H-chromen-6-yl)-6-fluoro-3-methyl-octa-2E,4E,6E-trienoic acid] | 9 nM | 52% | 
CCOc1cc2c(cc1\C(C)=C(F)/C=C/C(C)=C/C(=O)O)C(CC)=CC(C)(C)O2 [Compound 123, 7-(7-Ethoxy-4-ethyl-2,2-dimethyl-2H-chromen-6-yl)-6-fluoro-3-methyl-octa-2E,4E,6E-trienoic acid] | > 1000 nM |  | 
CC/C(=C(F)/C=C/C(C)=C/C(=O)O)c1cc2c(cc1OC)OC(C)(C)C=C2C(C)(C)C [Compound 131, 7-(4-tert-Butyl-7-methoxy-2,2-dimethyl-2H-chromen-6-yl)-6-fluoro-3-methyl-nona-2E,4E,6E-trienoic acid] | 8 nM | 53% | 
CCOc1cc2c(cc1\C(CC)=C(F)/C=C/C(C)=C/C(=O)O)C(C)=CC(C)(C)O2 [Compound 132, 7-(7-Ethoxy-2,2,4-trimethyl-2H-chromen-6-yl)-6-fluoro-3-methyl-nona-2E,4E,6E-trienoic acid] | > 1000 nM |  | 
COc1c(\C(C)=C(F)/C=C/C(C)=C/C(=O)O)cc2c(c1Cl)OC(C)(C)C=C2C(C)C [Compound 170, 7-(8-Chloro-4-isopropyl-7-methoxy-2,2-dimethyl-2H-chromen-6-yl)-6-fluoro-3-methyl-octa-2E,4E,6E-trienoic acid] | 0.2 nM | 109% | 
CCOc1c(\C(CC)=C(F)/C=C/C(C)=C/C(=O)O)cc2c(c1Cl)OC(C)(C)C=C2C(C)C [Compound 173] | 6 nM | 10% | 
CC(/C=C/C(F)=C(/C)c1cc2c(c(Cl)c1OC(C)C)OC(C)(C)C=C2C(C)C)=C\C(=O)O [Compound 174] | 114 nM | 6% | 
